{"source": "patent US7972785B2", "about": "“Biomarkers for liver fibrotic injury” (Industrial Technology Research Institute (ITRI), priority 2006, dated 2011)", "key": {"[1]": {"system": "rat liver", "assay": "Histopathological examination of DMN-induced liver damage", "format": "in vivo", "procedure": "A rat hepatic fibrosis model was set up through the use of DMN. DMN is a potent hepatoxin that specifically targets the liver and can cause liver fibrosis. The histopathological changes resulting from DMN treatment involve the rapid deposition of collagen, the major protein of fibrosis and important to the process of cirrhosis. […] The DMN-induced liver fibrosis model was performed as described in Jezequel A. M. et al. (14). Male Sprague-Dawley rats (Slc:SD; Japan SLC, Shizuoka, Japan), weighing from 300 to 350 grams, were used in the experiments. To induce hepatic fibrosis over a six-week time course experiment, the rats were given DMN (Sigma, Saint Louis, Mo.), dissolved in normal saline, three consecutive days a week for the first three consecutive weeks at the dosage of 6.7 mg/kg per body weight by intraperitoneal injection. Injection time points are shown as inverted triangles in FIG. 1. Injections were at a much lower dosage than those used in other experiments where the dosage was 100 mg/kg/day. The higher dosage can cause toxicity in rat liver (21, 22).)\nTwo to seven rats at each time point were treated with either DMN or with an equal volume of normal saline without DMN as the control (26 DMN-treated rats and 24 control rats). Rats were weighed and sacrificed on days 11, 18, 25, 32, 39, and 46 (sacrifice time points are shown as triangles in FIG. 1A) respectively. These triangular time points were designated as weeks 1 through 6 (FIG. 1A).\nLiver tissues were immediately removed after sacrifice and subject to histopathological examination. The fixed liver samples were then processed for paraffin embedding. Five micrometer (5 μm) sections were prepared for hematoxylin and eosin staining (to score necroinflammatory and fatty changes) and for Sirius red/fast green collagen staining (to score for fibrosis) (23). The fatty changes were classified as presence (+) or absence (−).\nIn FIG. 2A, the representative phenotypes of the DMN-induced rat liver fibrosis were characterized by scoring the four histopathological features (necrosis, inflammation, fibrosis, and fatty change) as follows: the necrosis scores were from N0 to N3 (the first panel), and the inflammation scores were from I0 to I3. The scoring system for examining the intensity of liver fibrosis was modified from the scoring system of the Hepatitis Activity Index (HAI) (29, 30). Fibrosis was divided into four scores: normal (F0), fibrous expansion of portal tracts (F1), bridging fibrosis (F2) and frequent bridging fibrosis with focal nodule formation (F3). The fatty change was scored as present (+) or absent (−), respectively (the last panel). The images of the fatty change are shown at 200× magnification, whereas the others are shown at 100× magnification (FIG. 2A).\nThe results were ranked by time course. The necroinflammatory scores were the sum of the necrosis and inflammation scores and range from A0 to A6. The necroinflammatory change was divided into three grades: A0=none, A(1-3)=mild and A(4-6)=moderate necroinflammation. The fibrosis change was divided into two grades: F(0-1)=normal to fibrous expansion of portal tracts, F(2-3)=bridge fibrosis to frequent bridging fibrosis with nodule formation. The fatty change was shown as presence (+) or absence (−). The number of rats was counted and used to calculate the percentage of each histopathological level at each time point."}, "[2]": {"system": "rat liver proteins (vimentin, fibrinogen)", "assay": "iTRAQ proteomics / Western blot of liver protein of DMN-treated rats", "format": "in vivo", "conditions": "DMN-induced rats", "procedure": "The liver tissues of 6 control and 6 DMN-treated rats were used to perform duplicate iTRAQ labeling experiments. Liver tissue was frozen in liquid nitrogen and then pulverized to powder using a mortar and pestle pre-cooled with liquid nitrogen. Then, the liquid nitrogen was allowed to evaporate, and the powdered tissue was separated into tubes and stored at −80° C. Twenty volumes (w/v) of lysis buffer (containing 2% (w/v) SDS in 20 mM phosphate buffer at pH 7.6) was added to the powdered tissue and incubated at room temperature for 1 hour. […]\nThe total protein contents were determined using the Coomassie Plus Protein Assay Reagent (PIERCE, Rockford, Ill., U.S.A.). […]\nPeptides with different isobaric tags were pooled and acidified by mixing with 10 mM phosphoric acid (in 25% (v/v) acetonitrile and 75% H2O) to a total volume of 4.0 mL for strong cation exchange (SCX) chromatography. […] The desalted peptide from each SCX fraction was dried by speed vacuuming centrifugation and then analyzed by nanoLC hybrid mass spectrometry. […] MS/MS mass spectra were analyzed in continuous flow mode with a […] I.D. fused silica tip. MS/MS spectra were analyzed against rat.fasta databases from NCBI by ProQUANT 2.0 (Applied Biosystems/MDS Sciex, Foster City, Calif., U.S.A.). […] Relative quantification of peptide was performed on the MS/MS scans, using ratio of the areas under the peaks. […]"}}, "data": [{"compound": "CN(C)N=O", "note": "[DMN, Dimethylnitrosamine]", "values": [{"measurement": "abnormality in the kidney or spleen", "setting": "[1]; DMN-treated rats, data not shown", "result": "no clear abnormality"}, {"measurement": "DMN-treated rats with none (F0) or low levels of fibrosis (F1)", "setting": "[1]; first two weeks, 6.7 mg/kg i.p.", "result": "seventy-five"}, {"measurement": "DMN-treated rats with F2 and F3 fibrosis", "setting": "[1]; last two weeks", "result": 78, "unit": "%"}, {"measurement": "treated rats with fatty changes present", "setting": "[1]; six-week time course", "result": 3.7, "unit": "%"}, {"measurement": "DMN-treated rats with high levels of fibrosis (F2 to F3)", "setting": "[1]; third to fourth week", "result": "~90", "unit": "%"}, {"measurement": "Fibrinogen protein expression", "setting": "[2]", "result": "up-regulated"}]}]}
